Assay [1] concerns the target T1, HLA-A02.01 (Homo sapiens, UniProt P04439, D140Y/D185E/D98H/E176V/E277Q/G131W/G231S/I119V/I121R/I166T/I218V/N151K/N90K/P208A/P217A/Q86G/Q94H/R138H/R169H).
T1 construct: made in house; host or cells: E. coli
The assay can be described thus: Class I MHC peptide binding stability (pMHC-I dissociation, 125I-labeled light chain). The following applies: for Stability (T1/2 (h)): allele A02.01; for Measured stability: HLA Allele A02.01, time for half of the complexes to dissociate at 37° C.

Assay [2] concerns the target HLA-A02.01 (Homo sapiens, UniProt P04439, D140Y/D185E/D98H/E176V/E277Q/G131W/G231S/I119V/I121R/I166T/I218V/L300P/L318F/N151K/N90K/P208A/P217A/Q86G/Q94H/R138H/R169H/T345S). Briefly: Class I MHC peptide binding affinity (displacement of radiolabeled reference peptide). An outline of the steps:
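MHC class I complexes were loaded with a radiolabeled reference peptide, then exposed to test peptides over a range of concentrations for 2 days. Reference peptide still bound to the complexes was quantified by size-exclusion gel filtration.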

[3] abbreviates: allele A02.01, read-out: Observed Affinity (IC50, (nM)).

SMILES strings stand for the structures. Like-named read-outs stand apart in the source and are kept apart here. Where a SMILES comes first, the peptide text is derived from it.

24 compounds from patent US20220282217A1, “COMPOSITIONS AND METHODS FOR PREPARING T CELL COMPOSITIONS AND USES THEREOF” (priority 2019, published 2022) can be followed below.

As for `CC(C)[C@H](N)C(=O)N[C@H](C(=O)N1CCC[C@H]1C(=O)N[C@@H](CS)C(=O)N[C@@H](CCC(=O)O)C(=O)N1CCC[C@H]1C(=O)N1CCC[C@H]1C(=O)N[C@@H](CCC(=O)O)C(=O)N[C@H](C(=O)O)C(C)C)C(C)C`, the “Stability (T1/2 (h))” value in assay [1] stood at 0.9 h. For the same compound, the IC50 in assay [2] (setting [3]) came to 187 nM.

`CC[C@H](C)[C@H](NC(=O)[C@@H](N)CC(C)C)C(=O)N[C@@H](CCSC)C(=O)N[C@@H](CCC(N)=O)C(=O)N[C@@H](CC(C)C)C(=O)N[C@@H](CCSC)C(=O)N1CCC[C@H]1C(=O)N[C@@H](Cc1ccccc1)C(=O)NCC(=O)N[C@@H](CS)C(=O)O`: in assay [1] (EGFR T790M peptides, HLA allele A02.01), the “Stability (half-life (hr.))” value turned out to be 22.88 min. The “Stability (T1/2 (h))” value in assay [1] worked out at 0.4 h. Further, in assay [2] (EGFR T790M peptides, HLA allele A02.01, read-out: Affinity), the Kd stood at 132 nM. The IC50 in assay [2] (setting [3]) worked out at 177 nM.

`CC(C)C[C@H](N)C(=O)N[C@H](C(=O)N[C@H](C(=O)N[C@H](C(=O)NCC(=O)N[C@@H](C)C(=O)N[C@@H](CC(=O)O)C(=O)NCC(=O)N[C@H](C(=O)O)C(C)C)C(C)C)C(C)C)C(C)C` (H-LVVVGADGV-OH; N-terminus and C-terminus assumed): in assay [1], the “Measured stability” value was 0.0 h. Further, the IC50 in assay [2] (Measured Affinity (nM), HLA Allele A02.01) stood at 977 nM; in assay [2] (Observed Affinity (IC50, (nM)), allele A02.01) it was 1190 nM.

For the compound `CSCC[C@H](NC(=O)[C@H](CCC(=O)O)NC(=O)[C@H](CC(C)C)NC(=O)[C@H](CC(C)C)NC(=O)[C@H](CC(C)C)NC(=O)[C@H](CC(=O)O)NC(=O)[C@H](CS)NC(=O)[C@H](CC(C)C)NC(=O)[C@@H]1CCCN1)C(=O)O` (H-PLCDLLLEM-OH; N-terminus and C-terminus assumed), the “Stability (T1/2 (h))” value in assay [1] was determined as 0.8 h. Moreover, the IC50 in assay [2] (setting [3]) came to 602 nM.

Turning to `CC[C@H](C)[C@H](NC(=O)[C@@H](NC(=O)[C@H](CC(C)C)NC(=O)[C@@H](NC(=O)[C@@H]1CCCN1C(=O)[C@H](CCCNC(=N)N)NC(=O)[C@H](CCC(N)=O)NC(=O)[C@H](CC(N)=O)NC(=O)[C@H](CCSC)NC(=O)CN)[C@@H](C)CC)[C@@H](C)O)C(=O)O`, the “Stability (T1/2 (h))” value in assay [1] is 0.4 h. Also, the IC50 in assay [2] (setting [3]) came out at 709 nM.

As for `CSCC[C@H](NC(=O)[C@H](CCC(=O)O)NC(=O)[C@H](CC(C)C)NC(=O)[C@H](CC(C)C)NC(=O)[C@H](CC(C)C)NC(=O)[C@H](CC(=O)O)NC(=O)[C@H](CS)NC(=O)[C@H](CC(C)C)NC(=O)[C@@H]1CCCN1)C(=O)N[C@@H](CC(C)C)C(=O)O` (H-PLCDLLLEML-OH; N-terminus and C-terminus assumed), the “Stability (T1/2 (h))” value in assay [1] stood at 0.9 h. Besides, the IC50 in assay [2] (setting [3]) stood at 2010 nM.

In the case of `CC(C)C[C@H](NC(=O)[C@H](C)N)C(=O)N[C@@H](CO)C(=O)N[C@@H](CCC(=O)O)C(=O)N[C@@H](Cc1c[nH]cn1)C(=O)N[C@@H](CS)C(=O)N1CCC[C@H]1C(=O)N[C@H](C(=O)N[C@H](C(=O)O)[C@@H](C)O)[C@@H](C)O` (H-ALSEHCPTT-OH; N-terminus and C-terminus assumed), in assay [1], the “Stability (T1/2 (h))” value was determined as 27.3 h. For the same compound, the IC50 in assay [2] (setting [3]) stood at 79 nM.

Take `CSCC[C@H](NC(=O)[C@H](CS)NC(=O)[C@H](CO)NC(=O)[C@H](CO)NC(=O)[C@H](CC(N)=O)NC(=O)[C@H](CS)NC(=O)[C@H](CCSC)NC(=O)[C@@H](N)Cc1ccc(O)cc1)C(=O)NCC(=O)N[C@@H](CO)C(=O)O` (H-YMCNSSCMGS-OH; N-terminus and C-terminus assumed): in assay [1], the “Stability (T1/2 (h))” value is 0.8 h.

Consider `CC(C)C[C@H](N)C(=O)N[C@H](C(=O)N[C@H](C(=O)N[C@H](C(=O)NCC(=O)N[C@@H](C)C(=O)N[C@H](C(=O)NCC(=O)N[C@H](C(=O)O)C(C)C)C(C)C)C(C)C)C(C)C)C(C)C`, for which, in assay [1], the “Measured stability” value stood at 0.6 h and the “Stability (T1/2 (h))” value is listed as 0.6 h.

Take `CC(C)C[C@H](NC(=O)[C@H](CO)NC(=O)[C@H](CS)NC(=O)[C@H](CCC(=O)O)NC(=O)[C@H](Cc1c[nH]c2ccccc12)NC(=O)[C@H](CC(C)C)NC(=O)[C@H](C)NC(=O)[C@H](CC(C)C)NC(=O)[C@@H](N)CC(C)C)C(=O)O`: in assay [1], the “Stability (T1/2 (h))” value was 4 h.

Take `CC[C@H](C)[C@H](N)C(=O)N[C@H](C(=O)N[C@H](C(=O)N[C@@H](CCC(=O)O)C(=O)N[C@@H](Cc1ccc(O)cc1)C(=O)N[C@@H](CS)C(=O)N[C@@H](Cc1ccccc1)C(=O)N[C@@H](Cc1ccc(O)cc1)C(=O)NCC(=O)O)[C@@H](C)CC)[C@@H](C)CC` (H-IIIEYCFYG-OH; N-terminus and C-terminus assumed): in assay [1], the “Stability (T1/2 (h))” value came out at 1.2 h.

With `CC[C@H](C)[C@H](NC(=O)[C@@H](N)C(C)C)C(=O)N[C@H](C(=O)N[C@@H](CCC(=O)O)C(=O)N[C@@H](Cc1ccc(O)cc1)C(=O)N[C@@H](CS)C(=O)N[C@@H](CS)C(=O)N[C@@H](Cc1ccc(O)cc1)C(=O)NCC(=O)O)[C@@H](C)CC` (H-VIIEYCCYG-OH; N-terminus and C-terminus assumed), the “Stability (T1/2 (h))” value in assay [1] came out at 0.5 h.

For the compound `CC(C)C[C@H](NC(=O)[C@H](CO)NC(=O)[C@H](CS)NC(=O)[C@H](CCC(=O)O)NC(=O)[C@H](Cc1c[nH]c2ccccc12)NC(=O)[C@H](CC(C)C)NC(=O)[C@H](C)NC(=O)[C@H](CC(C)C)NC(=O)[C@H](CC(C)C)NC(=O)[C@@H](N)Cc1ccccc1)C(=O)O`, the “Stability (T1/2 (h))” value in assay [1] came out at 10.8 h.

As for `CC(C)C[C@H](NC(=O)[C@@H](N)CCCCN)C(=O)N[C@H](C(=O)N[C@H](C(=O)N[C@H](C(=O)NCC(=O)N[C@@H](C)C(=O)N[C@@H](CC(=O)O)C(=O)NCC(=O)N[C@H](C(=O)O)C(C)C)C(C)C)C(C)C)C(C)C`, in assay [1], the “Measured stability” value stood at 0.9 h and the “Stability (T1/2 (h))” value was found to be 0.9 h.

Consider `CC(C)C[C@H](NC(=O)[C@H](C)NC(=O)[C@H](Cc1ccccc1)NC(=O)[C@H](CO)NC(=O)[C@@H](NC(=O)[C@H](CCC(N)=O)NC(=O)[C@@H](NC(=O)[C@@H](NC(=O)[C@H](CCC(N)=O)NC(=O)[C@@H](N)CC(C)C)C(C)C)[C@@H](C)O)[C@@H](C)O)C(=O)O` [LQVTQTSFAL] (H-LQVTQTSFAL-OH; N-terminus and C-terminus assumed), for which, in assay [2] (setting [3]), the IC50 amounted to 718 nM.

With `CSCC[C@H](NC(=O)[C@H](CCC(N)=O)NC(=O)[C@H](CC(C)C)NC(=O)[C@@H](NC(=O)[C@@H](N)CCCCN)C(C)C)C(=O)N[C@@H](CC(=O)O)C(=O)N[C@@H](Cc1ccccc1)C(=O)N[C@@H](CC(C)C)C(=O)N[C@H](C(=O)O)C(C)C` (H-KVLQMDFLV-OH; N-terminus and C-terminus assumed), in assay [1], the “Stability (T1/2 (h))” value came to 6.4 h.

Consider `CC[C@H](C)[C@H](N)C(=O)N[C@H](C(=O)N[C@@H](CCC(=O)O)C(=O)N[C@@H](Cc1ccc(O)cc1)C(=O)N[C@@H](CS)C(=O)N[C@@H](Cc1ccccc1)C(=O)N[C@@H](Cc1ccc(O)cc1)C(=O)NCC(=O)N[C@@H](CC(=O)O)C(=O)N[C@@H](CC(C)C)C(=O)O)[C@@H](C)CC` (H-IIEYCFYGDL-OH; N-terminus and C-terminus assumed), for which, in assay [2] (setting [3]), the IC50 was 1090 nM.

Turning to `CC[C@H](C)[C@H](NC(=O)[C@@H](N)Cc1ccccc1)C(=O)N[C@@H](CC(C)C)C(=O)N[C@@H](CCSC)C(=O)N[C@@H](CCC(=O)O)C(=O)N[C@@H](CC(C)C)C(=O)N[C@@H](CCSC)C(=O)N[C@@H](C)C(=O)NCC(=O)NCC(=O)O` (H-FILMELMAGG-OH; N-terminus and C-terminus assumed), the IC50 in assay [2] (setting [3]) came to 1580 nM.

`CSCC[C@H](NC(=O)[C@@H](N)Cc1ccc(O)cc1)C(=O)N[C@@H](C)C(=O)N[C@@H](CC(N)=O)C(=O)NCC(=O)N[C@@H](CO)C(=O)N[C@@H](CC(C)C)C(=O)N[C@@H](CC(C)C)C(=O)N[C@@H](CC(N)=O)C(=O)O` (H-YMANGSLLN-OH; N-terminus and C-terminus assumed): the IC50 in assay [2] (BTK C481S peptide, HLA Allele A02.01, read-out: Affinity) was 4000 nM; in assay [2] (setting [3]) it was 4440 nM.

As for `CC[C@H](C)[C@H](N)C(=O)N[C@@H](C)C(=O)N[C@@H](CC(N)=O)C(=O)N[C@@H](CC(C)C)C(=O)N[C@@H](CC(C)C)C(=O)NCC(=O)N[C@@H](C)C(=O)N[C@@H](CS)C(=O)N[C@H](C(=O)N[C@H](C(=O)O)[C@@H](C)CC)[C@@H](C)O` (H-IANLLGACTI-OH; N-terminus and C-terminus assumed), the IC50 in assay [2] (setting [3]) came out at 6420 nM.

On to `CC(C)C[C@H](NC(=O)[C@H](C)NC(=O)[C@H](CCC(=O)O)NC(=O)[C@H](CCC(N)=O)NC(=O)[C@@H](NC(=O)[C@H](CC(=O)O)NC(=O)[C@H](Cc1ccccc1)NC(=O)[C@H](CCC(=O)O)NC(=O)[C@H](CCC(N)=O)NC(=O)[C@@H](N)CC(C)C)C(C)C)C(=O)O` [LQEFDVQEAL] (H-LQEFDVQEAL-OH), for which the IC50 in assay [2] (setting [3]) was 50300 nM.

For the compound `CC(C)C[C@H](NC(=O)[C@H](CO)NC(=O)[C@H](CCCNC(=N)N)NC(=O)[C@H](Cc1c[nH]c2ccccc12)NC(=O)[C@H](CCC(N)=O)NC(=O)[C@@H](NC(=O)CNC(=O)[C@H](C)NC(=O)[C@H](CCC(N)=O)NC(=O)[C@H](C)N)C(C)C)C(=O)O` (H-AQAGVQWRSL-OH; N-terminus and C-terminus assumed), in assay [2] (setting [3]), the IC50 is 670 nM.

Consider `CSCC[C@H](NC(=O)[C@H](Cc1c[nH]cn1)NC(=O)[C@@H](NC(=O)[C@H](CC(C)C)NC(=O)[C@@H](NC(=O)[C@@H]1CCCN1C(=O)[C@H](C)NC(=O)[C@H](CC(C)C)NC(=O)[C@H](C)N)[C@@H](C)O)[C@@H](C)O)C(=O)O` (H-ALAPTLTHM-OH; N-terminus and C-terminus assumed), for which the IC50 in assay [2] (setting [3]) came out at 59 nM.

As for `CC(C)C[C@H](NC(=O)[C@@H](N)C(C)C)C(=O)N[C@@H](CCC(N)=O)C(=O)N[C@@H](CCCNC(=N)N)C(=O)N[C@@H](Cc1ccccc1)C(=O)N[C@@H](CCCNC(=N)N)C(=O)N[C@@H](Cc1ccccc1)C(=O)N[C@H](C(=O)N[C@@H](Cc1c[nH]cn1)C(=O)N[C@H](C(=O)O)C(C)C)[C@@H](C)O`, in assay [2] (setting [3]), the IC50 was 107 nM.
